Laboratory results: US10118947B2, “Modulation of structured polypeptide specificity” (BICYCLE THERAPEUTICS LIMITED, priority 2013, dated 2018)
Numbered stars: 1 amine (or outer) side, 2 acyl side, 3 side chain; on linkers, the order of the positions; unused ones are H or OH. Bridge positions count the residues as written; N and C are the ends. Square brackets hold non-standard residues; d marks the D form. Peptide text beside a SMILES is read from it. Pro(trans-4-Ph) = O=C(O)[C@@H]1C[C@@H](c2ccccc2)CN1; Pro(4R-Bn) = O=C(O)[C@@H]1C[C@@H](Cc2ccccc2)CN1; Pro(trans-4-F) = O=C(O)[C@@H]1C[C@@H](F)CN1; Bip = N[C@@H](Cc1ccc(-c2ccccc2)cc1)C(=O)O; Dip = N[C@H](C(=O)O)C(c1ccccc1)c1ccccc1; TBMB = c1c(C[*:1])cc(C[*:3])cc1C[*:2]; Hyp = O=C(O)[C@@H]1C[C@@H](O)CN1; 3Pal = N[C@@H](Cc1cccnc1)C(=O)O; 4Pal = N[C@@H](Cc1ccncc1)C(=O)O; Cha = N[C@@H](CC1CCCCC1)C(=O)O; Pen = CC(C)(S)[C@H](N)C(=O)O; Abu = CC[C@H](N)C(=O)O; Aib = CC(C)(N)C(=O)O

Assay: Plasma stability profiling Method #1 (MALDI-TOF, 35% plasma), rat plasma
Assay type: in vitro ADME
Conditions: method #1
Procedure: A rapid plasma stability profiling assay was developed that employed mass spectrometric detection (MALDI-TOF, Voyager DE, Applied Biosystems) of the parent mass, until the time when the parent peptide mass was no longer observable. Specifically, 200 uM of peptide was incubated in the presence of 35% rat or human plasma (Sera labs, using citrate as anticoagulant) at 37 deg C., which was supplemented with 1×PBS (derived from a 10×PBS Stock, Sigma). At various time points (i.e. t=0, 3, 24 hrs, henceafter daily up to 10 days), 2 uL of sample was added to 18 uL of 30 mM ammonium bicarbonate in a 1:1 mixture of acetonitrile:H2O. Samples were frozen at −80 deg C. until the time of analysis. For mass spectrometric analysis that determines the approximate detection window of the peptide, the acetonitrile:H2O-diluted sample of a given time point was spotted directly (0.7 uL) onto the MALDI plate. Matrix (alpha-cyanocinnamic acid, Sigma, prepared as a saturated solution in 1:1 acetonitrile:water containing 0.1% trifluoroacetic acid) was layered over the sample (1 uL). At a similar laser intensity setting on the MALDI TOF, the time could then be determined until parent peptide was no longer detectable. It should be noted that this is a qualitative assay serves to detect relative changes in plasma stability.

Row | SMILES | Observable in rat plasma, for days (Table 12) [days] | Observable in rat plasma, for days (Table 13) [days] | further results
1 | CC(=O)N[C@H]1CSCc2cc3cc(c2)CSC[C@H](NC(=O)[C@H](CCCNC(=N)N)NC(=O)[C@H](C)NC(=O)[C@@H]2CCCN2C(=O)[C@H](C(c2ccccc2)c2ccccc2)NC(=O)[C@H](CO)NC1=O)C(=O)N[C@@H](CC(C)C)C(=O)N[C@@H](Cc1c[nH]cn1)C(=O)N[C@@H](CCC(N)=O)C(=O)N[C@@H](CC(=O)O)C(=O)N[C@@H](CC(C)C)C(=O)N[C@H](C(N)=O)CSC3 [Ac-(06-34-18) 3,3-DPA2] (Ac-CS[Dip]PARCLHQDLC-NH2; linker 1-7-13 via TBMB) | 2 |  | 
2 | CC(=O)N[C@H]1CSCc2cc3cc(c2)CSC[C@H](NC(=O)[C@H](CCCNC(=N)N)NC(=O)[C@H](C)NC(=O)[C@@H]2CCCN2C(=O)[C@H](Cc2cccnc2)NC(=O)[C@H](CO)NC1=O)C(=O)N[C@@H](CC(C)C)C(=O)N[C@@H](Cc1c[nH]cn1)C(=O)N[C@@H](CCC(N)=O)C(=O)N[C@@H](CC(=O)O)C(=O)N[C@@H](CC(C)C)C(=O)N[C@H](C(N)=O)CSC3 [Ac-(06-34-18) 3Pal2] (Ac-CS[3Pal]PARCLHQDLC-NH2; linker 1-7-13 via TBMB) | 2 |  | 
3 | CC(=O)N[C@H]1CSCc2cc3cc(c2)CSC[C@H](NC(=O)[C@H](CCCNC(=N)N)NC(=O)[C@H](C)NC(=O)[C@@H]2CCCN2C(=O)[C@H](Cc2ccc(-c4ccccc4)cc2)NC(=O)[C@H](CO)NC1=O)C(=O)N[C@@H](CC(C)C)C(=O)N[C@@H](Cc1c[nH]cn1)C(=O)N[C@@H](CCC(N)=O)C(=O)N[C@@H](CC(=O)O)C(=O)N[C@@H](CC(C)C)C(=O)N[C@H](C(N)=O)CSC3 [Ac-(06-34-18) 4,4,BPal2] (Ac-CS[Bip]PARCLHQDLC-NH2; linker 1-7-13 via TBMB) | 2 |  | 
4 | CC(=O)N[C@H]1CSCc2cc3cc(c2)CSC[C@H](NC(=O)[C@H](CCCNC(=N)N)NC(=O)[C@H](C)NC(=O)[C@@H]2C[C@@H](Cc4ccccc4)CN2C(=O)[C@H](Cc2c[nH]c4ccccc24)NC(=O)[C@H](CO)NC1=O)C(=O)N[C@@H](CC(C)C)C(=O)N[C@@H](Cc1c[nH]cn1)C(=O)N[C@@H](CCC(N)=O)C(=O)N[C@@H](CC(=O)O)C(=O)N[C@@H](CC(C)C)C(=O)N[C@H](C(N)=O)CSC3 [Ac-(06-34-18) 4Benzyl Pro3] (Ac-CSW[Pro(4R-Bn)]ARCLHQDLC-NH2; linker 1-7-13 via TBMB) |  | 2 | 
5 | CC(=O)N[C@H]1CSCc2cc3cc(c2)CSC[C@H](NC(=O)[C@H](CCCNC(=N)N)NC(=O)[C@H](C)NC(=O)[C@@H]2C[C@@H](F)CN2C(=O)[C@H](Cc2c[nH]c4ccccc24)NC(=O)[C@H](CO)NC1=O)C(=O)N[C@@H](CC(C)C)C(=O)N[C@@H](Cc1c[nH]cn1)C(=O)N[C@@H](CCC(N)=O)C(=O)N[C@@H](CC(=O)O)C(=O)N[C@@H](CC(C)C)C(=O)N[C@H](C(N)=O)CSC3 [Ac-(06-34-18) 4FluoPro3] (Ac-CSW[Pro(trans-4-F)]ARCLHQDLC-NH2; linker 1-7-13 via TBMB) |  | 2 | 
6 | CC(=O)N[C@H]1CSCc2cc3cc(c2)CSC[C@H](NC(=O)[C@H](CCCNC(=N)N)NC(=O)[C@H](C)NC(=O)[C@@H]2CCCN2C(=O)[C@H](Cc2ccncc2)NC(=O)[C@H](CO)NC1=O)C(=O)N[C@@H](CC(C)C)C(=O)N[C@@H](Cc1c[nH]cn1)C(=O)N[C@@H](CCC(N)=O)C(=O)N[C@@H](CC(=O)O)C(=O)N[C@@H](CC(C)C)C(=O)N[C@H](C(N)=O)CSC3 [Ac-(06-34-18) 4Pal2] (Ac-CS[4Pal]PARCLHQDLC-NH2; linker 1-7-13 via TBMB) | 2 |  | 
7 | CC(=O)N[C@H]1CSCc2cc3cc(c2)CSC[C@H](NC(=O)[C@H](CCCNC(=N)N)NC(=O)[C@H](C)NC(=O)[C@@H]2C[C@@H](c4ccccc4)CN2C(=O)[C@H](Cc2c[nH]c4ccccc24)NC(=O)[C@H](CO)NC1=O)C(=O)N[C@@H](CC(C)C)C(=O)N[C@@H](Cc1c[nH]cn1)C(=O)N[C@@H](CCC(N)=O)C(=O)N[C@@H](CC(=O)O)C(=O)N[C@@H](CC(C)C)C(=O)N[C@H](C(N)=O)CSC3 [Ac-(06-34-18) 4Phenyl Pro3] (Ac-CSW[Pro(trans-4-Ph)]ARCLHQDLC-NH2; linker 1-7-13 via TBMB) |  | 2 | 
8 | CC[C@@H]1NC(=O)[C@@H]2CCCN2C(=O)[C@H](Cc2c[nH]c3ccccc23)NC(=O)[C@H](CO)NC(=O)[C@@H](NC(C)=O)CSCc2cc3cc(c2)CSC[C@H](NC(=O)[C@H](CCCNC(=N)N)NC1=O)C(=O)N[C@@H](CC(C)C)C(=O)N[C@@H](Cc1c[nH]cn1)C(=O)N[C@@H](CCC(N)=O)C(=O)N[C@@H](CC(=O)O)C(=O)N[C@@H](CC(C)C)C(=O)N[C@H](C(N)=O)CSC3 [Ac-(06-34-18) Aba4] (Ac-CSWP[Abu]RCLHQDLC-NH2; linker 1-7-13 via TBMB) |  |  | Observable in rat plasma, for days (Table 14): 2 days
9 | CC(=O)N[C@H]1CSCc2cc3cc(c2)CSC[C@H](NC(=O)[C@H](CCCNC(=N)N)NC(=O)C(C)(C)NC(=O)[C@@H]2CCCN2C(=O)[C@H](Cc2c[nH]c4ccccc24)NC(=O)[C@H](CO)NC1=O)C(=O)N[C@@H](CC(C)C)C(=O)N[C@@H](Cc1c[nH]cn1)C(=O)N[C@@H](CCC(N)=O)C(=O)N[C@@H](CC(=O)O)C(=O)N[C@@H](CC(C)C)C(=O)N[C@H](C(N)=O)CSC3 [Ac-(06-34-18) Aib4] (Ac-CSWP[Aib]RCLHQDLC-NH2; linker 1-7-13 via TBMB) |  |  | Observable in rat plasma, for days (Table 14): 7 days
10 | CC(=O)N[C@H]1CSCc2cc3cc(c2)CSC(C)(C)[C@H](NC(=O)[C@H](CCCNC(=N)N)NC(=O)[C@H](C)NC(=O)[C@@H]2CCCN2C(=O)[C@H](Cc2c[nH]c4ccccc24)NC(=O)[C@H](CO)NC1=O)C(=O)N[C@@H](CC(C)C)C(=O)N[C@@H](Cc1c[nH]cn1)C(=O)N[C@@H](CCC(N)=O)C(=O)N[C@@H](CC(=O)O)C(=O)N[C@@H](CC(C)C)C(=O)N[C@H](C(N)=O)CSC3 [Ac-(06-34-18) Cys2ToPen2] (Ac-CSWPAR[Pen]LHQDLC-NH2; linker 1-7-13 via TBMB) |  |  | Observable in rat plasma, for days (Table 14): 5 days

Second part, led by results:

Row | Observable in rat plasma, for days (Table 12) [days] | Observable in rat plasma, for days (Table 13) [days] | SMILES | further results
11 |  | 2 | CC(=O)N[C@H]1CSCc2cc3cc(c2)CSC[C@H](NC(=O)[C@H](CCCNC(=N)N)NC(=O)[C@H](C)NC(=O)C(C)(C)NC(=O)[C@H](Cc2c[nH]c4ccccc24)NC(=O)[C@H](CO)NC1=O)C(=O)N[C@@H](CC(C)C)C(=O)N[C@@H](Cc1c[nH]cn1)C(=O)N[C@@H](CCC(N)=O)C(=O)N[C@@H](CC(=O)O)C(=O)N[C@@H](CC(C)C)C(=O)N[C@H](C(N)=O)CSC3 [Ac-(06-34-18) Aib3] (Ac-CSW[Aib]ARCLHQDLC-NH2; linker 1-7-13 via TBMB) | 
12 | 2 |  | CC(=O)N[C@H]1CSCc2cc3cc(c2)CSC[C@H](NC(=O)[C@H](CCCNC(=N)N)NC(=O)[C@H](C)NC(=O)[C@@H]2CCCN2C(=O)[C@H](CC2CCCCC2)NC(=O)[C@H](CO)NC1=O)C(=O)N[C@@H](CC(C)C)C(=O)N[C@@H](Cc1c[nH]cn1)C(=O)N[C@@H](CCC(N)=O)C(=O)N[C@@H](CC(=O)O)C(=O)N[C@@H](CC(C)C)C(=O)N[C@H](C(N)=O)CSC3 [Ac-(06-34-18) Cha2] (Ac-CS[Cha]PARCLHQDLC-NH2; linker 1-7-13 via TBMB) | 
13 |  | 2 | CC(=O)N[C@H]1CSCc2cc3cc(c2)CSC[C@H](NC(=O)[C@H](CCCNC(=N)N)NC(=O)[C@H](C)NC(=O)[C@@H]2C[C@@H](O)CN2C(=O)[C@H](Cc2c[nH]c4ccccc24)NC(=O)[C@H](CO)NC1=O)C(=O)N[C@@H](CC(C)C)C(=O)N[C@@H](Cc1c[nH]cn1)C(=O)N[C@@H](CCC(N)=O)C(=O)N[C@@H](CC(=O)O)C(=O)N[C@@H](CC(C)C)C(=O)N[C@H](C(N)=O)CSC3 [Ac-(06-34-18) HyP3] (Ac-CSW[Hyp]ARCLHQDLC-NH2; linker 1-7-13 via TBMB) | 
